Results on 13 molecules are retold here after PubChem BioAssay (NCI).

Holding throughout (assay): NCI tumour cell line growth inhibition, 48 h
The test system of assay [1] is CCRF-CEM leukemia.
In assay [2] the test system is HOP-62 NSCLC.
In assay [3] the test system is HT29 colon.
Assay [4] relates to NCI-H23 lung.
The test system of assay [5] is OVCAR-3 ovarian.
Assay [6] has as its system OVCAR-8 ovarian.
Assay [7] deals with SF-539 CNS.
The test system of assay [8] is SNB-19 CNS.
Assay [9] has as its system DU-145 prostate.
The subject of assay [10] is NCI/ADR-RES ovarian.

Molecules are shown by their SMILES. “And” between values parts separate entries of the source, which are not always exact repeats. Equal values may be shown once.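 Values below derive from 48-hour exposures of cells grown in 96-well plates, with endpoints linearly interpolated between the two concentrations bracketing the appropriate inhibition level. Abbreviation: GI50, concentration required for 50% inhibition of growth. At the TGI there is no net growth.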 A value given as a limit tells only on which side of the number the result lay.

`CC1=C(C(=O)Nc2ccc(C)cc2)C(c2cccc([N+](=O)[O-])c2)C(C(=O)Nc2ccc(C)cc2)=C(C)N1`: the TGI in assay [1] is 50.7 µM; in assay [2], 89.4 µM; in assay [3], 49.4 µM; in assay [4], 70.4 µM; in assay [5], 95.5 µM; in [6], over 100 µM. The results for the TGI in assay [7] and in [8] were 36.9 µM and over 100 µM, respectively.
On to `COC(=O)Nc1nc2ccc(C(=O)c3ccc(F)cc3)cc2[nH]1`, for which the GI50 in assay [9] is 0.298 µM; in assay [2] it was 0.682 µM; in [3] it was 0.0785 µM; in [4] it was 1.12 µM; in assay [10] it was 0.108 µM; in assay [5], 0.0517 µM. Besides, the GI50 was 0.639 µM in assay [6], 0.242 µM in [7] and 0.322 µM in assay [8]. Moreover, the TGI in assay [9] is 0.858 µM; in [2], 29.1 µM; in [3], over 100 µM; in assay [4], 56.2 µM; in assay [10], 0.562 µM; in [5], 0.211 µM. Besides, the TGI in assay [6] was over 31.6 µM; in assay [7], 0.778 µM; in assay [8] it was 15.4 µM.
Consider `Cc1ccccc1-n1c(CCl)nc2ccc(Br)cc2c1=O`, for which the TGI in assay [1] is 4.78 µM; in assay [2], 56 µM; in assay [3] it was 16.7 µM; in assay [4], 25.3 µM; in [5] it was 27.5 µM; in [6], 27.1 µM. The TGI in assay [7] came to 21.8 µM; in [8] it was 77.1 µM.
Take `CCCCCCCCCCCCCCCCCC[S+](C)CC` (stereo unspecified): the GI50 is 1.41 µM in [9], 1.38 µM in assay [4], 11.4 µM in assay [10] and 1.08 µM in assay [5]. In addition, the TGI is 2.75 µM in assay [9], 3.2 µM in assay [4], 37.2 µM in [10] and 2.33 µM in assay [5].
As for `CC(=O)Nc1ccc(C2=N/C(=C\c3ccc(Cl)cc3)C(=O)O2)cc1`, the TGI in [1] is 71.7 µM; in assay [2] it was over 100 µM; in [3], over 100 µM; in assay [4], over 100 µM; in [5] it was 86.7 µM; in [6], over 100 µM. The TGI in assay [7] and in assay [8] was over 100 µM in each case.
For `CN1CCN(CCC=C2c3ccccc3Sc3ccc(S(=O)(=O)N(C)C)cc32)CC1`, the GI50 in assay [1] was 3.12 µM and 4.36 µM; in [9], 13 µM and 12.6 µM; in [2] it was 5.73 µM and 14.6 µM; in [3], 1.42 µM and 0.872 µM; in assay [4], 12.2 µM and 15.7 µM; in assay [10], 5.5 µM and 13.2 µM. In addition, the GI50 in [5] was 3.84 µM and 6.44 µM; in [6], 5.85 µM and 15.2 µM. The TGI in assay [1] is 20.1 µM and 23 µM; in assay [9], > 100 µM and 26.9 µM; in [2], 23.3 µM and 33 µM; in assay [3], 3.26 µM and 2.91 µM; in assay [4], 71 µM and 52.7 µM; in assay [10], 26.5 µM and 37.5 µM. Further, the TGI is 16.3 µM and 22.7 µM in assay [5]; 24.6 µM and 36.4 µM in [6].
Take `COC(=O)C1=CC(=O)[C@@H]2CCCC[C@H]12`: the TGI in assay [1], in [2], in assay [5], in assay [6], in [7] and in [8] was over 100 µM each time.
Regarding `O=C(CC1(O)C(=O)Nc2ccccc21)c1ccccc1O` (stereo unspecified), the TGI in assay [2], in assay [3], in assay [4], in assay [5], in assay [6] and in assay [7] was over 100 µM each time. In assay [8], this molecule had a TGI of over 100 µM.
With `O=C(NN1C(=O)CSC1c1c(Cl)cccc1Cl)C(O)c1ccccc1` (stereo unspecified), the GI50 in assay [1] was 43.7 µM; in [9], over 100 µM; in assay [2], over 100 µM; in [3], 33.1 µM; in assay [4], 19.9 µM; in assay [5] it was 21.3 µM. The values for the GI50 in assay [6], in [7] and in assay [8] were 52 µM, over 100 µM and 71.6 µM, respectively. Besides, the TGI was over 100 µM in assay [1]; over 100 µM in [9]; over 100 µM in assay [2]; over 100 µM in assay [3]; over 100 µM in assay [4]; 76.6 µM in assay [5]. Moreover, the TGI in assay [6], in assay [7] and in [8] was over 100 µM throughout.
As for `Clc1ccccc1C1SCc2nc3ccccc3n21` (stereo unspecified), the TGI in assay [1] was over 100 µM; in assay [2], 64.6 µM; in [3], over 100 µM; in [4], over 100 µM; in assay [5] it was 29.5 µM; in assay [6] it was over 100 µM. For the same molecule, the TGI was over 100 µM in assay [7] and 40.6 µM in assay [8].
Take `CCc1ccccc1NC(=O)C(=O)C1C(=O)N(c2ccccc2)N=C1N` (stereo unspecified): the TGI in assay [2], in [3], in assay [4], in assay [5], in assay [6] and in [7] was over 100 µM throughout. In assay [8], this molecule yielded a TGI of over 100 µM.
Take `N#CCCN(c1ccc(C=O)cc1)S(=O)(=O)c1ccccc1`: the TGI in [2], in assay [3], in [5], in [6], in assay [7] and in assay [8] was over 100 µM each time.
Take `N#Cc1cccc(C2C(=O)c3ccc(C(=O)c4ccc5c(c4)C(=O)N(c4ccc(Oc6ccc(N7C(=O)c8ccc(C(=O)c9ccc%10c(c9)C(=O)N(c9cccc(C#N)c9)C%10=O)cc8C7=O)cc6)cc4)C5=O)cc3C2=O)c1` (stereo unspecified): the TGI in assay [1], in assay [2], in assay [3], in assay [4], in assay [5] and in assay [6] was over 100 µM throughout. Further, the TGI in assay [7] and in [8] was over 100 µM each time.
